Inhibition data for two compounds are collected here from patent US9187471B2, “Pyrido [4,3-b] indole and pyrido [3,4-b] indole derivatives and methods of use” (Medivation Technologies, Inc., priority 2010, dated 2015).

The target in one assay is T1, Adrenergic α1B (Rattus norvegicus, UniProt P15823).
T1 construct: rat adrenergic α1D receptor obtained from Wistar Rat liver; from tissue; host or cells: Wistar rat liver
T1 sequence (P15823 1-515): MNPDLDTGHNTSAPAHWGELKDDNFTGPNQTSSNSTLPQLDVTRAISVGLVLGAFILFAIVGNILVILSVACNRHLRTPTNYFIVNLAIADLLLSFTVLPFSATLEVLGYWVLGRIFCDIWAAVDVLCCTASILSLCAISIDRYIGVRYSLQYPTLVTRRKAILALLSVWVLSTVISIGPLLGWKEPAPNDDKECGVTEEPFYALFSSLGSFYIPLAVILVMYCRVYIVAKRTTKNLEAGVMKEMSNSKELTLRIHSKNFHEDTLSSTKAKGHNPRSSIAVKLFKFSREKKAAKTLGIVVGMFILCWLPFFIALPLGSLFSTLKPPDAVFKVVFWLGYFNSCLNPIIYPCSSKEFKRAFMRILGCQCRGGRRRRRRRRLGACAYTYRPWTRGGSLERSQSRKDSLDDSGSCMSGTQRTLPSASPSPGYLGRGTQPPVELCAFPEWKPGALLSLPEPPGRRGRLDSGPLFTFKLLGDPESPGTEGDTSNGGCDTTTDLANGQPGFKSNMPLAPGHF
Put plainly: Adrenergic α1B radioligand binding ([3H]Prazosin). The conditions noted are these: read-out: Adrenergic (0.1 μM) a1B, percent inhibition of specific binding; compound at 0.1 μM; 0.25 nM [3H]Prazosin; Wistar Rat liver.

In assay [1] the target is T2, human recombinant adrenergic α1D receptor (Homo sapiens, UniProt P25100).
T2 construct: expressed in transfected cells; host or cells: HEK-293
T2 sequence (P25100 1-572): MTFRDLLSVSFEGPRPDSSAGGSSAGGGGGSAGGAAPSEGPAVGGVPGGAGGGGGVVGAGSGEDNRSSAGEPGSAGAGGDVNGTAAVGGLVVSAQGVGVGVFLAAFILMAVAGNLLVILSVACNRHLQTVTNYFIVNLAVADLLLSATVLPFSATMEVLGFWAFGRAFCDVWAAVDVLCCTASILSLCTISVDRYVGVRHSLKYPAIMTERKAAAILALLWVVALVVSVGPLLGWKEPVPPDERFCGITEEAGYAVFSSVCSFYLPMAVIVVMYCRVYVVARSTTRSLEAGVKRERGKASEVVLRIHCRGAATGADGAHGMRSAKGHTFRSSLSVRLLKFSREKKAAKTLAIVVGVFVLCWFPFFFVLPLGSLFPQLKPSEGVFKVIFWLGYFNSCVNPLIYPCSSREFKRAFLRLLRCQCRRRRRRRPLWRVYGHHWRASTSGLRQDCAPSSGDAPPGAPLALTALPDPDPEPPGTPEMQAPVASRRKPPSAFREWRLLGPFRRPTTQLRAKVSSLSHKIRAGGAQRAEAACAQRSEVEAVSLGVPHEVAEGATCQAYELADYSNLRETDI
Put plainly: Adrenergic α1D radioligand binding ([3H]Prazosin). As to conditions: read-out: Adrenergic (0.1 μM) a1D, percent inhibition of specific binding; compound at 0.1 μM; 0.6 nM [3H]Prazosin.
Procedure: Compounds of invention were incubated with 0.6 nM [^3H]Prazosin for 60 min at 25° C. Non-specific binding was estimated in the presence of 10 μM phentolamine. Receptor proteins were filtered and washed, the filters were then counted to determine [^3H]Prazosin specifically bound. […] Compounds of the invention were tested in this biochemical assay and percent inhibition of specific binding was determined.

Procedure for Adrenergic α1B: To evaluate in radioligand binding assays the activity of compounds of the invention, rat adrenergic α1D receptor obtained from Wistar Rat liver (Garcia-S'ainz, J. et al, Biochem. Biophys. Res. Commun. 186:760, 1992; Michel, A. et al, Br. J. Pharmacol. 98:883, 1989) in a modified Tris-HCl buffer (50 mM Tris-HCl buffer, pH 7.4, 0.5 mM EDTA) was used. Compounds of the invention were incubated with 0.25 nM [^3H]Prazosin for 60 min at 25° C. Non-specific binding was estimated in the presence of 10 μM phentolamine Receptor proteins were filtered and washed, the filters were then counted to determine [^3H]Prazosin specifically bound. […] Compounds of the invention were tested in this biochemical assay and percent inhibition of specific binding was determined.

Consider `CNC(=O)c1cccc(-c2ccc(-n3c4c(c5cc(C)ccc53)CN(C)CC4)nc2)c1` [Compound No. 143, 3-(6-(2,8-dimethyl-3,4-dihydro-1H-pyrido[4,3-b]indol-5(2H)-yl)pyridin-3-yl)-N-methylbenzamide], for which the values for the inhibition at 0.1 µM (on Adrenergic α1B; in assay [1]) were 83% and 72%, respectively.

For the compound `Cc1ccc2c(c1)c1c(n2-c2cscc2-c2ccc3c(ccn3C)c2)CCN(C)C1` [Compound 33], the inhibition at 0.1 µM on Adrenergic α1B was found to be 52%.

For orientation: inhibition means the percentage by which the read-out fell short of the control.
